Measurements published in patent US9572786B2, “Use of capsiate or dihydrocapsidate” (Catholic University Industry Academy Cooperation Foundation, priority 2007, dated 2017).

Assays:
C57/BL6 mouse = test: Mouse Matrigel plug assay; assay type: in vivo; settings: 60 μg in 0.6 mL Matrigel with 100 ng VEGF, subcutaneous injection, 6 days
Method: Mouse Matrigel plug was carried out in order to investigate the effect of capsiate or dihydrocapsiate on VEGF-induced angiogenesis in vivo [Min K J et al., 2007, Blood, 15: 1495-1502].
0.6 mL of Matrigel containing 60 μg of capsiate or dihydrocapsiate, 100 ng of VEGF and 10 units of heparin or Matrigel containing 100 ng of VEGF only was administered to C57/BL6 mouse (Orient, Korea) through subcutaneous injection. 6 days later, the produced Matrigel plug was taken out.

COX-2 = test: UV-induced COX-2 expression, Western blotting; assay type: cell-based, human; settings: HaCaT cells; 10, 25, 50 μM; UV 100 J/m^2; 16 hours
Method: In order to investigate the effect of capsiate on UV-induced COX-2 expression in human keratinocytes, 5×10^5 HaCaT cells were placed on a 60 mm Petri dish and cultured for 24 hours in DMEM containing 10% FBS.
Subsequently, the cells were cultured for 24 hours in DMEM containing 1% FBS until starvation. Then, after treating with capsiate for 30 minutes at different concentrations (10 μM, 25 μM, 50 μM), followed by washing 3 times with PBS, UV was irradiated at an intensity of 100 J/m^2 in order to induce the expression of COX-2. Immediately after the UV irradiation, the cells were washed again with PBS and further cultured for 16 hours in DMEM containing 1% FBS, which was treated with capsiate at the same concentration as in the pre-treatment.
Western blotting was carried out as follows in order to evaluate the degree of COX-2 expression in the cells. […]
In order to investigate the effect of dihydrocapsiate on UV-induced COX-2 expression in human keratinocytes, the degree of COX-2 expression was evaluated in the same manner as Example 2-1, except for using dihydrocapsiate instead of capsiate.

VE-cadherin [1] = test: Tyrosine phosphorylation of VE-cadherin, Western blotting; assay type: cell-based, human; settings: HUVEC; 5, 10, 25 μM; 50 ng/mL VEGF
Method: Because VEGF is known to induce tyrosine phosphorylation of VE-cadherin and thereby regulate permeability between endothelial cells by making the intercellular contact loose [Esser S. et al., 1998, J. Cell Sci., 111: 1853-1865], the inhibition effect on tyrosine phosphorylation of VE-cadherin was investigated.
3.5×10^5 HUVEC were placed on a 60 mm plate and cultured for 24 hours. After washing twice with M199 medium (Invitrogen, USA), the cells were cultured in M199 medium containing 1% FBS for 6 hours. After treating with capsiate or dihydrocapsiate at different concentrations (5 μM, 10 μM, 25 μM) for 30 minutes, followed by pre-culturing for 30 minutes, the cells were cultured for 6 hours after adding 50 ng/mL VEGF. Proteins were collected from the cells and, after quantitation, subjected to Western blotting using VE-cadherin antibody in order to identify the level of protein expression.

aortic ring = test: Sprouting from the aortic ring; assay type: cell-based, Sprague Dawley rat; settings: rat aortic ring in Matrigel; 6 days; evaluation 0 to 5 points
Method: The degree of sprouting from the aortic ring caused by treatment with VEGF was investigated as follows in order to identify the effect of capsiate or dihydrocapsiate on VEGF-induced angiogenesis.
The aortic ring was prepared from the artery of Sprague Dawley rat (6-8 weeks old). The aortic ring was placed on a 48-well plate coated with 120 μL of Matrigel and 50 μL of Matrigel was further added. Then, 200 μL of a medium (human endothelial serum-free medium, Invitrogen, USA) containing capsiate or dihydrocapsiate and VEGF or a medium containing only VEGF was added. 6 days later, the cells were fixed, stained using Diff-Quick and subjected to evaluation (0 to 5 points) in a double blinded manner.

VE-cadherin [2] = test: VE-cadherin expression in the intercellular junction, immunofluorescence; assay type: cell-based, human; settings: HUVEC; 5, 10, 25 μM pre-treatment; VEGF 50 ng/mL for 1 hour
Method: In order to identify if the change of permeability of endothelial cells is related with VE-cadherin, the level of VE-cadherin expression in the intercellular junction was investigated.
HUVEC were placed on a gelatin-coated cover slip at a concentration of 12×10^5 cells/well and cultured for 24 hours. After washing twice with M199 medium, the cells were cultured in M199 medium containing 1% for 6 hours. After treating with capsiate or dihydrocapsiate at different concentrations (5 μM, 10 μM, 25 μM) for 30 minutes, the cells were treated with VEGF (50 ng/mL) for 1 hour. The cells were fixed and made permeable by treating with 2% formaldehyde for 10 minutes, and washed 3 times with PBS. Subsequently, the cells were treated with 0.1% Triton X-100 and 2% bovine serum albumin (BSA)/PBS blocking solution for 30 minutes. After labeling with VE-cadherin at room temperature for 2 hours, followed by washing with PBS, the cells were labeled again with FITC-conjugated secondary antibody at room temperature for 1 hour and 30 minutes. The cover slip was mounted on SloFade (Molecular Probes) and observed under a fluorescence microscope (Carl Zeiss).

HUVEC = test: Cell cycle analysis by FACS; assay type: cell-based, human; settings: 1, 5, 10, 25 μM, 10 ng/mL VEGF, 20 hours
Method: In order to identify the mechanism of the inhibition of proliferation of endothelial cells confirmed in Example 9, fluorescence-activated cell sorting (FACS) analysis was carried out on the cells at different phases of cell cycle.
3×10^5 HUVEC were placed on a 60 mm plate and cultured for 24 hours. After washing twice with M199 medium (Invitrogen, USA), the cells were cultured in M199 medium containing 1% FBS for 6 hours. After adding capsiate or dihydrocapsiate at different concentrations (1 μM, 5 μM, 10 μM, 25 μM), followed by pre-culturing for 30 minutes, 10 ng/mL VEGF was added and the cells were cultured for 20 hours. Then, the cells were fixed with ethanol cooled in ice. The fixed cells were dehydrated in PBS containing 2% FBS and 0.1% Tween 20 at 4° C. for 30 minutes. After centrifuge, the cells were lysed in the same buffer solution. After treating with RNase (37° C., 1 hr), followed by staining with propidium iodide, analysis was carried out using a FACS analyzer (FACScan DB PharMingen flow cytometer).

Row | SMILES | VEGF-induced angiogenesis in Matrigel plug (colour) (C57/BL6 mouse) | UV-induced COX-2 expression (COX-2) | VEGF-induced phosphorylation of VE-cadherin (VE-cadherin [1]) | VEGF-promoted sprouting from the aortic ring (aortic ring) | cell adhesion ability of VE-cadherin in the intercellular junction (VE-cadherin [2]) | number of endothelial cells in G1 arrest phase (HUVEC)
1 | COc1cc(COC(=O)CCCC/C=C/C(C)C)ccc1O [capsiate] | angiogenesis hardly occurred | decreased in a concentration-dependent manner | decreased in a concentration-dependent manner | inhibited the sprouting in a concentration-dependent manner | recovered | increase of the number of endothelial cells in G1 arrest phase
2 | COc1cc(COC(=O)CCCCCCC(C)C)ccc1O [dihydrocapsiate] | angiogenesis hardly occurred | decrease of the increased COX-2 expression in a concentration-dependent manner | decreased in a concentration-dependent manner | inhibited the sprouting in a concentration-dependent manner | recovered | increase of the number of endothelial cells in G1 arrest phase
